Tests used:
hAChE = hAChE (Homo sapiens, UniProt P22303); assay: Inhibition of hAChE with acetylthiocholine as substrate; assay type: biochemical
hBChE = hBChE (Homo sapiens, UniProt P06276); assay: Inhibition of hBChE with butyrylthiocholine as substrate; assay type: biochemical
hiCE = molecular target: T1, hiCE (Homo sapiens, UniProt O00748); assay type: cell-based; details: 4-MUA, U373MG cells
T1 sequence (O00748 27-559): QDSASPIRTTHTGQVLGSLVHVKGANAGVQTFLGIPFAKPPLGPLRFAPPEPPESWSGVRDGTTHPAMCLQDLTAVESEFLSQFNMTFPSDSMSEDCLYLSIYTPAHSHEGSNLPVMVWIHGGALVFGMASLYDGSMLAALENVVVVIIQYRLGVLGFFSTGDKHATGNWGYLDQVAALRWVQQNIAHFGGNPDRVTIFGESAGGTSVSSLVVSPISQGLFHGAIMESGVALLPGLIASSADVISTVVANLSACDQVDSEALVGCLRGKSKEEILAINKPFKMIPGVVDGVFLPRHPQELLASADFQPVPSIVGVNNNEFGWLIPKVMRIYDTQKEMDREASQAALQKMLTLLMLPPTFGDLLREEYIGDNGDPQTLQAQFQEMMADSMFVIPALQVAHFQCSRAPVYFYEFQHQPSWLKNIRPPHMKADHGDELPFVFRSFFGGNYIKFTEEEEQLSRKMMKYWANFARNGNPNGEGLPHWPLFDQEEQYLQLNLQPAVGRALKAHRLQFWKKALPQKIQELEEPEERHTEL

Chain of hBChE (P06276 29-602): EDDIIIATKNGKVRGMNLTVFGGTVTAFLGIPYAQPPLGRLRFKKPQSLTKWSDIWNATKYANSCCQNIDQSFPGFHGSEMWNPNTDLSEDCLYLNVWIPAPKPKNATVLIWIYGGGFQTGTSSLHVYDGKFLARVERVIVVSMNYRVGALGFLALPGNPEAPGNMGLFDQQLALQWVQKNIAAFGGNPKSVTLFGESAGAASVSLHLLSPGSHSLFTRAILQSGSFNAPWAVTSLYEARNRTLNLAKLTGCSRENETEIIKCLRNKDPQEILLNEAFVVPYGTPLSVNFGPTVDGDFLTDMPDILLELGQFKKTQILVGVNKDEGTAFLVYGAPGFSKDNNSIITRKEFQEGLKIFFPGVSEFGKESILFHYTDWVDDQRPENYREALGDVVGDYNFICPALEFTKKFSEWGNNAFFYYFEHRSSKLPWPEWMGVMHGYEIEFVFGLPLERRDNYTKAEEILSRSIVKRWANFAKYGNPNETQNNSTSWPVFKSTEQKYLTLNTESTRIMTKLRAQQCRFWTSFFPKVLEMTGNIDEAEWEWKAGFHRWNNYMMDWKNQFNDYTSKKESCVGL
Chain of hAChE (P22303 32-614): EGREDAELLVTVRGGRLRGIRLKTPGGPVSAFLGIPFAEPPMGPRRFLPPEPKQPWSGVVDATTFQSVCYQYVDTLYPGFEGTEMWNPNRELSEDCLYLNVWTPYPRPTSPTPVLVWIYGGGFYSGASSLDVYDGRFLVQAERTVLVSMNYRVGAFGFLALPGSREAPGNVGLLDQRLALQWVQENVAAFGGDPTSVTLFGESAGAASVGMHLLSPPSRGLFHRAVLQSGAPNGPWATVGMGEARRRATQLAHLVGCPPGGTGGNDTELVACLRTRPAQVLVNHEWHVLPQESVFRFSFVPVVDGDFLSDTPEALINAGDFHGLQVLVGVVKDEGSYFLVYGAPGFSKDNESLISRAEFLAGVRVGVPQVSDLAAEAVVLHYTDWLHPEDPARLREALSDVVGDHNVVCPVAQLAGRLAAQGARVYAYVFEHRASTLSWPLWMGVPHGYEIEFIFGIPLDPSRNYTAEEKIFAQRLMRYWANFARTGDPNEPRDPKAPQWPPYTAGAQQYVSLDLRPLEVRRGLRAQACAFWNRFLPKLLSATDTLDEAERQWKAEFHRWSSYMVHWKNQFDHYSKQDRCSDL

Structure (SMILES)	inhibition of hAChE (in words) (hAChE)	Ki (hBChE) [µM]	inhibition of hBChE (in words) (hBChE)	intracellular inhibition of hiCE (in words) (hiCE)
Cc1cccc2c3c(ccc12)C1=C(C(=O)C3=O)[C@@H](C)CO1 [compound 22, 1,2-dihydro-1,6-dimethyl-(1R)-phenanthro [1,2-b] uran-10,11-dione]	modest activity	> 100	not BChE	–
Cc1c(S(=O)(=O)[O-])oc2c1C(=O)C(=O)c1c-2ccc2c1CCCC2(C)C.[Na+] [compound 25, 6,7,8,9,10,11-hexahydro-1,6,6-trimethyl-10,11-dioxo-phenanthro[1,2-b] furan-2-sulfonic acid, sodium salt]	–	–	–	failed to inhibit
C[C@H]1COC2=C1C(=O)C(=O)c1c2ccc2c1CCCC2(C)C [compound 24, 1,2,6,7,8,9-hexahydro-1,6,6-trimethyl-(1R)-phenanthro [1,2-b] furan-10,11-dione]	modest activity	–	not BChE	–
Cc1coc2c1C(=O)C(=O)c1c-2ccc2c(C)cccc12 [compound 21, 1,6-dimethyl-phenanthro [1,2-b] furan-10,11-dione]	–	> 100	–	–
Cc1coc2c1C(=O)C(=O)c1c-2ccc2c1CCCC2(C)C [compound 7, 1,6,6-trimethyl-6,7,8,9-tetrahydrophenanthro[1,2-b] furan-10,11-dione]	did not inhibit	> 100	did not inhibit	–

Source: article PMC3556224 (Journal of natural products, 2013)
